The values below are quoted from earlier work in patent US10434198B2, “Radiopharmaceutical solutions with advantageous properties” (Sciencons AS, priority 2015, dated 2019).

For series [1] the following is noted: 10 minutes after injection.
The subject of another series is MDA-MB-231 (SA). As to conditions: 250 kBq/kg (3.6×10^11 ^223Ra atoms), Suominen et al. 2013.

Consider `[Ra]` [radium], for which the “reduction of radium in blood” value in series [1] is 88%.

As to `[Cl][223Ra][Cl]` [^223Ra, radium-223 dichloride], the survival advantage with MDA-MB-231 (SA) is given as 43%.
